The record followed here is ChEMBL document CHEMBL3091359, “Potent oxazolidinone antibacterials with heteroaromatic C-ring substructure” (ACS Med Chem Lett, 2013).

Data set [1] concerns the target Cytochrome P450 2C9 (Homo sapiens, UniProt P11712). As to the kind of experiment: Inhibition of human CYP2C9 assessed as tolbutamide hydroxylation after 20 mins by LC-MS/MS analysis. It is filed as ADME.
For data set [2], the system named is Haemophilus influenzae. As to the kind of experiment: Antibacterial activity against Haemophilus influenzae SR27914 clinical isolate assessed as […] by CLSI broth microdilution method. It is filed as functional. For orientation: Broth dilution looks for growth in wells or tubes with falling amounts of substance.
Data set [3] concerns Staphylococcus aureus. In words: Antibacterial activity against Staphylococcus aureus SR20549 clinical isolate assessed as […] by CLSI broth microdilution method. The class given is functional.
Data set [4] has as its system Enterococcus faecium. In words: Antibacterial activity against Enterococcus faecium SR7940 clinical isolate assessed as […] by CLSI broth microdilution method. The class given is functional.
The target of data set [5] is T1, MAO-A (Rattus norvegicus, UniProt P21396).
T1 sequence (P21396 whole entry): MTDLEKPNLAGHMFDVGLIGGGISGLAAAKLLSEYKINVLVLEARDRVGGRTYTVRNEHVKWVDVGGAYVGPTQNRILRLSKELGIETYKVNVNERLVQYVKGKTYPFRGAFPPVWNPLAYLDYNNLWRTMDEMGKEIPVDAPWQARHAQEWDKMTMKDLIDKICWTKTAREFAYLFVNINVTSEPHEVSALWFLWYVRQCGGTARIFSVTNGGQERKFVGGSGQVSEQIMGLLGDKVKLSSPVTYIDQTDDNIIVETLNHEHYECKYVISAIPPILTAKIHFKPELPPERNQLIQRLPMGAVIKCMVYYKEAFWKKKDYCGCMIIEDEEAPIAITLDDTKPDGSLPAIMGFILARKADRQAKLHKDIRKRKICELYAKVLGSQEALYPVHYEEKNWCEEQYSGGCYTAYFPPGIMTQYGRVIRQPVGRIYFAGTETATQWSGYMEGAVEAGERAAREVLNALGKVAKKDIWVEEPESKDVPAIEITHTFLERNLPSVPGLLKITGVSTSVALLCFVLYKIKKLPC
In words: Inhibition of rat forebrain MAO-A using [14C]5-HT as substrate at 30 uM preincubated for 20 mins followed by substrate addition measured after 5 mins by liquid scintillation counting analysis. To be noted: probe [14C]5-HT.

Data set [6] relates to Staphylococcus aureus. As to the kind of experiment: Antibacterial activity against methicillin-resistant Staphylococcus aureus SR3637 clinical isolate infected in iv dosed JCL/ICR systemic infection model assessed as mortality administered after 1 hr of infection measured for 7 days. The class given is functional.
Data set [7] relates to Enterococcus faecalis. As to the kind of experiment: Antibacterial activity against Enterococcus faecalis SR1004 clinical isolate assessed as […] by CLSI broth microdilution method. It is filed as functional.
Data set [8] concerns Streptococcus pneumoniae. As to the kind of experiment: Antibacterial activity against Streptococcus pneumoniae SR26207 clinical isolate assessed as […] by CLSI broth microdilution method. The class given is functional.
The subject of data set [9] is Staphylococcus aureus. As to the kind of experiment: Antibacterial activity against Staphylococcus aureus Smith clinical isolate assessed as […] by CLSI broth microdilution method. The class given is functional.
Data set [10] addresses Cytochrome P450 3A4 (Homo sapiens, UniProt P08684). As to the kind of experiment: Inhibition of human CYP3A4 assessed as terfenadine hydroxylation after 20 mins by LC-MS/MS analysis. It is filed as ADME.
In data set [11] the target is T2, Cytochrome P450 1A2 (Homo sapiens, UniProt P05177).
T2 sequence (P05177 whole entry): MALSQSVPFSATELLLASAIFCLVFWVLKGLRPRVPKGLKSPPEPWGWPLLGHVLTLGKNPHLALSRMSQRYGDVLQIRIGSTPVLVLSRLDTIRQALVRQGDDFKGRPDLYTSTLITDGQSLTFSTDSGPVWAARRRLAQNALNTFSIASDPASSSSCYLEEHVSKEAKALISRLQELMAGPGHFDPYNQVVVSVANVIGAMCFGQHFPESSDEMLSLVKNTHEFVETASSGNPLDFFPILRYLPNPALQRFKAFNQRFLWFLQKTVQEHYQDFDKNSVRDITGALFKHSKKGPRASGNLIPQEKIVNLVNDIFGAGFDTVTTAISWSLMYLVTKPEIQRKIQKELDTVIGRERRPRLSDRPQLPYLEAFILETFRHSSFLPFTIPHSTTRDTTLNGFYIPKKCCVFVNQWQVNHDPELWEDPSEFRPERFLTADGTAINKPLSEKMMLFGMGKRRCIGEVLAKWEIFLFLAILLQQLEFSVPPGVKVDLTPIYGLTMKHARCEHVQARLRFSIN
As to the kind of experiment: Inhibition of human CYP1A2 assessed as ethoxyresorufin O-deethylation after 20 mins by fluorescence plate reader. It is filed as ADME.

The subject of data set [12] is Staphylococcus aureus. In words: Antibacterial activity against methicillin-resistant Staphylococcus aureus SR3637 clinical isolate assessed as […] by CLSI broth microdilution method. The class given is functional.
Data set [13] addresses Cytochrome P450 2D6 (Homo sapiens, UniProt P10635). In words: Inhibition of human CYP2D6 assessed as dextromethorphan O-demethylation after 20 mins by LC-MS/MS analysis. It is filed as ADME.
In data set [14] the target is T3, MAO-B (Rattus norvegicus, UniProt P19643).
T3 sequence (P19643 whole entry): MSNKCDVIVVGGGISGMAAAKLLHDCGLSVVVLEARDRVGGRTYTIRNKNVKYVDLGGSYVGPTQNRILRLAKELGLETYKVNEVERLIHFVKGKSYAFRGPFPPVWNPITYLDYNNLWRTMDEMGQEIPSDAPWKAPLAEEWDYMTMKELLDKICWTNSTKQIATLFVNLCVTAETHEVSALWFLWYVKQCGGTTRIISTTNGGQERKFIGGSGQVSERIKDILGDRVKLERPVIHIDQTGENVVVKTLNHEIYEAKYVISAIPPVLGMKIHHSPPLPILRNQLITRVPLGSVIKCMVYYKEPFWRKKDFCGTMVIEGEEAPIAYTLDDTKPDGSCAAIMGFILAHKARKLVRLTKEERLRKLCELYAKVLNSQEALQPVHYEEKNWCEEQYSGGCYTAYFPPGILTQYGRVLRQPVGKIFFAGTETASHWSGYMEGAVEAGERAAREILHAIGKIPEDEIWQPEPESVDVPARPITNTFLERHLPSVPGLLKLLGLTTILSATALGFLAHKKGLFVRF
In words: Inhibition of rat forebrain MAO-B using [14C]PEA as substrate at 30 uM preincubated for 20 mins followed by substrate addition measured after 10 mins by liquid scintillation counting analysis. To be noted: probe [14C]PEA.

In data set [15] the test system is Streptococcus pneumoniae. As to the kind of experiment: Antibacterial activity against penicillin-resistant Streptococcus pneumoniae SR11031 clinical isolate assessed as […] by CLSI broth microdilution method. The class given is functional.
Data set [16] concerns Moraxella catarrhalis. As to the kind of experiment: Antibacterial activity against Moraxella catarrhalis SR26840 clinical isolate assessed as […] by CLSI broth microdilution method. The class given is functional.
In data set [17] the test system is Staphylococcus aureus. As to the kind of experiment: Antibacterial activity against methicillin-resistant Staphylococcus aureus SR3637 clinical isolate infected in po dosed JCL/ICR systemic infection model assessed as mortality administered after 1 hr of infection measured for 7 days. It is filed as functional.
Data set [18] deals with Staphylococcus aureus. As to the kind of experiment: Antibacterial activity against linezolid-resistant Staphylococcus aureus NRS271 clinical isolate harboring G2576T mutation in peptidyl transferase center domain V of 23S rRNA gene assessed as […] by CLSI broth microdilution method. It is filed as functional.
In data set [19] the test system is Staphylococcus aureus. As to the kind of experiment: Ratio of linezolid MIC to compound MIC for Staphylococcus aureus Smith clinical isolate. The class given is functional.
Data set [20] relates to Staphylococcus aureus. As to the kind of experiment: Ratio of linezolid MIC to compound MIC for Staphylococcus aureus SR20549 clinical isolate. It is filed as functional.

In brackets after ≈: the same amount, converted by molar mass. Bounds are passed on as bounds.

Chain of Cytochrome P450 3A4 (P08684 whole entry): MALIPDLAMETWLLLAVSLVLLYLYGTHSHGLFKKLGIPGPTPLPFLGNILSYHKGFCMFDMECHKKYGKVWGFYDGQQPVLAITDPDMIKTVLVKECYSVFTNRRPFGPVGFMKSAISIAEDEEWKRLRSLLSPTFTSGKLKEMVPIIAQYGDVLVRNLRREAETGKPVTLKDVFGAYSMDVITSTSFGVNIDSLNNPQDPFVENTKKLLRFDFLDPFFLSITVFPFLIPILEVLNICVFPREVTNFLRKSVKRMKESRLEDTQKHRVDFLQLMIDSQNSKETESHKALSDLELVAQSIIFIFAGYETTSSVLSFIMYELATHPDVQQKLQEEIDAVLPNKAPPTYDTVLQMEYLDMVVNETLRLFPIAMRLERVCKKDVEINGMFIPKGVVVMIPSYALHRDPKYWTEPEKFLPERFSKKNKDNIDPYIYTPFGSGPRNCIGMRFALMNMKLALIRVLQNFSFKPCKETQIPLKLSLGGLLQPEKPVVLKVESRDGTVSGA
Chain of Cytochrome P450 2D6 (P10635 whole entry): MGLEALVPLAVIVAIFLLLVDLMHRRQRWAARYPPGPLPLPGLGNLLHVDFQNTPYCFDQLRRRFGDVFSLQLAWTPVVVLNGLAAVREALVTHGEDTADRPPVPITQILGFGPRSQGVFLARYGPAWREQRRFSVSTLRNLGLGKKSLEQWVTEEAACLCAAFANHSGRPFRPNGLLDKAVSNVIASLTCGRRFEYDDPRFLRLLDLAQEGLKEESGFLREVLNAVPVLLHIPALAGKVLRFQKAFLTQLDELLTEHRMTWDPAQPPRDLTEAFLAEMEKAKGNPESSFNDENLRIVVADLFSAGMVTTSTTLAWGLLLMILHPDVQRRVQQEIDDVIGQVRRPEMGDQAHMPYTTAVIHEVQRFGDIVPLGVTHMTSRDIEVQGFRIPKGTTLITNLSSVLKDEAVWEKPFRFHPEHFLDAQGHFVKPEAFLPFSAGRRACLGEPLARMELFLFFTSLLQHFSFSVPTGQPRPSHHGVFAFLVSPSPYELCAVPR
Chain of Cytochrome P450 2C9 (P11712 whole entry): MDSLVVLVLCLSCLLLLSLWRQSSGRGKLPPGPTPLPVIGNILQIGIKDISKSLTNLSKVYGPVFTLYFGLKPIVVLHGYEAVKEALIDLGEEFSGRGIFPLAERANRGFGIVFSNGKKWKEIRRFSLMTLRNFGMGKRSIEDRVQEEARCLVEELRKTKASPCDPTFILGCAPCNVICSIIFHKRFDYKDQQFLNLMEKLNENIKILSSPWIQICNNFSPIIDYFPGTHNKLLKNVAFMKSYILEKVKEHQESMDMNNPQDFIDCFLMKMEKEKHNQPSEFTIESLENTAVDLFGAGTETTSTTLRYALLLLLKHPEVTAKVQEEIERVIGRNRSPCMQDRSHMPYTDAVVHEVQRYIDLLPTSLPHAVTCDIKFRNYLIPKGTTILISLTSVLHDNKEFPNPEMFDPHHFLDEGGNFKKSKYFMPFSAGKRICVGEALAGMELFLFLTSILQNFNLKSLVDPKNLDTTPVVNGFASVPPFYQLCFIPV

Turning to `O=C1O[C@@H](Cn2ccnn2)CN1c1ccc(-c2ccn3ccnc3c2)c(F)c1`, the IC50 is > 20 µM in [1], 15 µM in [10], > 20 µM in data set [11] and > 20 µM in data set [13]. The MIC in data set [2] was 2 mg/L (≈ 5.29 µM); in data set [3], 0.125 mg/L (≈ 0.33 µM); in data set [4] it was 0.25 mg/L (≈ 0.661 µM); in data set [7], 0.25 mg/L (≈ 0.661 µM); in [8], ≤ 0.063 mg/L; in [9], 0.25 mg/L (≈ 0.661 µM). The MIC in data set [12] was 0.125 mg/L (≈ 0.33 µM); in [15] it was ≤ 0.063 mg/L; in data set [16] it was 2 mg/L (≈ 5.29 µM); in data set [18], 2 mg/L (≈ 5.29 µM). The inhibition at 5 min, 30 µM in data set [5] was 41.2%. Also, the 50% effective dose (ED50) in data set [6] worked out at 0.95 mg/kg; in [17], 1.02 mg/kg. In [14], the inhibition at 10 min, 30 µM was found to be 26.7%.
Turning to `CC(=O)NC[C@H]1CN(c2ccc(-c3ccc4ncnn4c3)c(F)c2)C(=O)O1`, the MIC in data set [2] is 4 mg/L (≈ 10.8 µM); in data set [3], 0.5 mg/L (≈ 1.35 µM); in [4] it was 0.5 mg/L (≈ 1.35 µM); in [7] it was 0.5 mg/L (≈ 1.35 µM); in [8] it was ≤ 0.063 mg/L; in [9] it was 0.5 mg/L (≈ 1.35 µM). Moreover, the MIC in data set [12] was 0.5 mg/L (≈ 1.35 µM); in data set [15] it was ≤ 0.063 mg/L; in data set [16], 8 mg/L (≈ 21.7 µM); in [18] it was 8 mg/L (≈ 21.7 µM). Also, the Ratio in data set [19] is 4; in [20], 2.
Take `CC(=O)NC[C@H]1CN(c2ccc(-c3ccc4ccnn4c3)c(F)c2)C(=O)O1`: the MIC in data set [2] was 8 mg/L (≈ 21.7 µM); in data set [3], 0.25 mg/L (≈ 0.679 µM); in [4], 0.25 mg/L (≈ 0.679 µM); in data set [7] it was 0.5 mg/L (≈ 1.36 µM); in data set [8], ≤ 0.063 mg/L; in data set [9], 0.5 mg/L (≈ 1.36 µM). In addition, the MIC was 0.25 mg/L (≈ 0.679 µM) in [12], ≤ 0.063 mg/L in [15], 2 mg/L (≈ 5.43 µM) in [16] and 2 mg/L (≈ 5.43 µM) in data set [18]. For the same molecule, the median effective dose (ED50) in [6] was > 10 mg/kg. The Ratio in data set [19] was 4; in data set [20], 8.
For the molecule `CC(=O)NC[C@H]1CN(c2ccc(-c3ccc4cncn4c3)c(F)c2)C(=O)O1`, the MIC in [2] was 8 mg/L (≈ 21.7 µM); in data set [3], 0.25 mg/L (≈ 0.679 µM); in data set [4], 0.5 mg/L (≈ 1.36 µM); in [7] it was 0.5 mg/L (≈ 1.36 µM); in [8], ≤ 0.063 mg/L; in [9], 1 mg/L (≈ 2.71 µM). For the same molecule, the MIC is 0.5 mg/L (≈ 1.36 µM) in data set [12], ≤ 0.063 mg/L in data set [15], 4 mg/L (≈ 10.9 µM) in data set [16] and 4 mg/L (≈ 10.9 µM) in [18]. Further, in [6], the ED50 is 3.05 mg/kg. Besides, the Ratio in [19] and in data set [20] was 2 throughout.

As usually defined, the IC50 is the concentration that inhibits the measured activity by half. For orientation: inhibition means how much of the control response was suppressed. A low value points to a response near the control. What is called ED50 is the dose at which the effect has come halfway, by size or by number of responders.
